Measurements: patent US20210032253A1, “PYRAZOLO[1,5-A][1,3,5]TRIAZINE-2-AMINE DERIVATIVE, PREPARATION METHOD THEREFOR AND MEDICAL USE THEREOF” (JIANGSU HENGRUI MEDICINE CO., LTD., priority 2018, published 2021)

What was measured:
Assay type in all cases: cell-based
[1] = target: T1, adenosine A2a receptor (A2aR) (Homo sapiens, UniProt P29274); experiment: Inhibition of adenosine A2a receptor cAMP signaling pathway in CHO-K1/A2aR cells (HTRF cAMP dynamic 2 kit); conditions: Table 1, 20 nM ethylcarbazole
T1 construct: expressed in transfected cells; host or cells: CHO-K1
T1 sequence (P29274 whole entry): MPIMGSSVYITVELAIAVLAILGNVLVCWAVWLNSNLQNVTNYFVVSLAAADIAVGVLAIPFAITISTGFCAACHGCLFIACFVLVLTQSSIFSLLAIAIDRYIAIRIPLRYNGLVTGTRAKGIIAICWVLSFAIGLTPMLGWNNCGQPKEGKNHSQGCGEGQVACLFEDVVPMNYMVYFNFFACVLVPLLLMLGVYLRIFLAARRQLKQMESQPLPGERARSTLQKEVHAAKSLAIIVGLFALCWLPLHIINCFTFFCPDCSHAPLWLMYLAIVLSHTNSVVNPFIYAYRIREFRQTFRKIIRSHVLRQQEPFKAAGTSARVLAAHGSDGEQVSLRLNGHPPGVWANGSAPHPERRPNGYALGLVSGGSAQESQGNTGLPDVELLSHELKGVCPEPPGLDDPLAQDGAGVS
Excerpt: (§1) Test Example 1. Determination of the inhibitory activities of the compounds of the present disclosure on the adenosine A2a receptor (A2aR) cAMP signaling pathway, the adenosine A1 receptor (A1R) cAMP signaling pathway and the adenosine A3 receptor (A3R) cAMP signaling pathway.
(§2) The inhibitory activities of the compounds of the present disclosure on the adenosine A2a receptor (A2aR) cAMP signaling pathway, the adenosine A1 receptor cAMP signaling pathway and the adenosine A3 receptor cAMP signaling pathway were determined by the following methods. The experimental method is briefly described as follows:
CHO-K1/A2aR cells were cultured in DMEM/F12 medium containing 10% fetal bovine serum and 800 μg/mL Zeocin™. The cells were digested with the cell dissociation buffer during the experiment. The cells were resuspended in the HBSS buffer containing 20 mM HEPES and 0.1% bovine serum albumin and counted, and the cell density was adjusted to 10^6 cells/mL. In 384-well plates, each well was added with 5 μL of the cell suspension, and 2.5 µL of test compounds (4× concentration) formulated with the HBSS buffer containing 20 mM HEPES, 0.1% bovine serum albumin, 54 μM rolipram and 2.7 U/mL adenosine deaminase, and the plates were incubated at room temperature for 30 minutes. Each well was then added with 2.5 μL of ethylcarbazole (4× concentration) formulated with the balanced salt buffer containing 20 mM HEPES, 0.1% bovine serum albumin, 54 μM rolipram and 2.7 U/mL adenosine deaminase, and the plates were incubated at room temperature for 30 minutes. The final concentrations of the compounds were: 10000, 2000, 400, 80, 16, 3.2, 0.64, 0.128, 0.0256, 0.00512, and 0.001024 nM. The final concentration of ethylcarbazole was 20 nM. Intracellular cAMP concentration was determined with cAMP dynamic 2 kits. cAMP-d2 and Anti-cAMP—Eu-Cryptate were diluted respectively with the cAMP lysis buffer at a ratio of 1:4. Each well was added with 5 μL of the diluted cAMP-d2, followed by addition of 5 μL of the diluted Anti-cAMP—Eu-Cryptate, and the plates were incubated at room temperature in the dark for 1 hour. The HTRF signal values were read by the PHERAstar multi-function microplate reader.

[2] = target: T2, adenosine A1 receptor (A1R) (Homo sapiens, UniProt P30542); experiment: Inhibition of adenosine A1 receptor cAMP signaling pathway in CHO-K1/A1R cells (HTRF cAMP dynamic 2 kit); conditions: Table 2; for IC50: CHO-K1/A1R cells, cAMP, 10 μM forskolin, 10 nM CPA; for IC50 ratio (A1R/A2aR): selectivity A1R over A2aR
T2 construct: expressed in transfected cells; host or cells: CHO-K1
T2 sequence (P30542 1-326): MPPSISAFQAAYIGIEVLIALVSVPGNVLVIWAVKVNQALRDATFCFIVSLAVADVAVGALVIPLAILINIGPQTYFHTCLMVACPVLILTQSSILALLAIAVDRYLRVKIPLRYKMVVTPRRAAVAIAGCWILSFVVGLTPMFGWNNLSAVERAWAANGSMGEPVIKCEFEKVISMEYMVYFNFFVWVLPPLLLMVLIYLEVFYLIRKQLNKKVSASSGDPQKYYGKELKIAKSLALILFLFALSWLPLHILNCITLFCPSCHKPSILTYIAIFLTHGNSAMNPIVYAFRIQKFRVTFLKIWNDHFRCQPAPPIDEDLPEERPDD
Excerpt: as §1, §2
CHO-K1/A1R cells were cultured in DMEMIF12 medium containing 10% fetal bovine serum and 1 mg/mL G418. The cells were digested with the cell dissociation buffer during the experiment. The cells were then resuspended in the HBSS buffer containing 20 mM HEPES and 0.1% bovine serum albumin and counted, and the cell density was adjusted to 5×10^5 cells/mL. In 384-well plates, each well was added with 12.5 μL of the cell suspension, and 6.25 μL of the test compounds (4× concentration) formulated with the HBSS buffer containing 20 mM HEPES, 0.1% bovine serum albumin, 54 μM rolipram and 2.7 U/mL adenosine deaminase, and the plates were incubated at room temperature for 30 minutes. Each well was then added with 6.25 μL of forskolin and N6-cyclopentyladenosine (4× concentration) formulated with the HBSS buffer containing 20 mM HEPES, 0.1% bovine serum albumin, 54 μM rolipram and 2.7 U/mL adenosine deaminase, and the plates were incubated at room temperature for 30 minutes. The final concentrations of the compounds were: 100000, 10000, 1000, 100, 10, 1, 0.1 and 0 nM. The final concentration of forskolin was 10 μM. The final concentration of CPA was 10 nM. Intracellular cAMP concentration was determined with cAMP dynamic 2 kits. cAMP-d2 and Anti-cAMP—Eu-Cryptate were diluted respectively with the cAMP lysis buffer at a ratio of 1:4. Each well was added with 12.5 μL of the diluted cAMP-d2, followed by addition of 12.5 μL of the diluted Anti-cAMP—Eu-Cryptate, and the plates were incubated at room temperature in the dark for 1 hour. The HTRF signal values were read by the PHERAstar multi-function microplate reader.

[3] = target: T3, adenosine A3 receptor (A3R) (Homo sapiens, UniProt P0DMS8); experiment: Inhibition of adenosine A3 receptor cAMP signaling pathway in CHO-K1/A3R cells (HTRF cAMP dynamic 2 kit); conditions: Table 3; for IC50: CHO-K1/A3R cells, cAMP, 10 μM forskolin, 5 nM 2Cl-IB-MECA; for IC50 ratio (A3R/A2aR): selectivity A3R over A2aR
T3 construct: expressed in transfected cells; host or cells: CHO-K1
T3 sequence (P0DMS8 1-318): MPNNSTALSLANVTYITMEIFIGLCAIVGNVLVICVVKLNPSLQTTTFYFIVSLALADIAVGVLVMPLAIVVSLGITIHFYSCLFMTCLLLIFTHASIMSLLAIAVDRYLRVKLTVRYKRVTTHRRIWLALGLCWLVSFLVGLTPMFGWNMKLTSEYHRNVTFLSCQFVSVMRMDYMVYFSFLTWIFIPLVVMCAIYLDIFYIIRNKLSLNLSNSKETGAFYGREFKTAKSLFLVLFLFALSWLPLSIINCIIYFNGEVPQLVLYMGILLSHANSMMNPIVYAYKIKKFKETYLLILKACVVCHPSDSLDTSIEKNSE
Excerpt: as §1, §2
CHO-K1/A3R cells were cultured in DMEMIF12 medium containing 10% fetal bovine serum and 10 μg/mL puromycin. The cells were digested with the cell dissociation buffer during the experiment. The cells were resuspended in the HBSS buffer containing 20 mM HEPES and 0.1% bovine serum albumin and counted, and the cell density was adjusted to 5×10^5 cells/mL. In 384-well plates, each well was added with 12.5 μL of the cell suspension, and 6.25 μL of the test compounds (4× concentration) formulated with the HBSS buffer containing 20 mM HEPES, 0.1% bovine serum albumin, 54 μM rolipram and 2.7 U/mL adenosine deaminase, and the plates were incubated at room temperature for 30 minutes. Each well was then added with 6.25 μL of forskolin and 2Cl-IB-MECA (4× concentration) formulated with the HBSS buffer containing 20 mM HEPES, 0.1% bovine serum albumin, […] rolipram and 2.7 U/mL adenosine deaminase, and the plates were incubated at room temperature for 30 minutes. The final concentrations of the compounds were: 100000, 10000, 1000, 100, 10, 1, 0.1 and 0 nM. The final concentration of forskolin was 10 μM. The final concentration of 2Cl-IB-MECA was 5 nM. Intracellular cAMP concentration was determined with cAMP dynamic 2 kits. cAMP-d2 and Anti-cAMP—Eu-Cryptate were diluted respectively with the cAMP lysis buffer at a ratio of 1:4. Each well was added with 12.5 μL of the diluted cAMP-d2, followed by addition of 12.5 μL of the diluted Anti-cAMP—Eu-Cryptate, and the plates were incubated at room temperature in the dark for 1 hour. The HTRF signal values were read by the PHERAstar multi-function microplate reader. IC50 values for the inhibitory activities of the compounds were calculated by Graphpad Prism software, and are shown in Table 3.

SMILES	IC50 [1] [nM]	IC50 [2] [nM]	IC50 ratio (A1R/A2aR) [2]	IC50 [3] [nM]	IC50 ratio (A3R/A2aR) [3]
Cc1ccc(-c2nc(N)nc3c(Cc4cccc(CO)n4)cnn23)o1 [Example 2, (6-((2-Amino-4-(5-methylfuran-2-yl)pyrazolo[1,5-a][1,3,5]triazin-8-yl)methyl)pyridin-2-yl)methanol]	0.87	1100	>10^3	2420	>10^3
COCCOCc1cccc(Cc2cnn3c(-c4ccc(C)o4)nc(N)nc23)n1 [Example 3, 8-((6-((2-Methoxyethoxy)methyl)pyridin-2-yl)methyl)-4-(5-methylfuran-2-yl)pyrazolo[1,5-a][1,3,5]triazin-2-amine]	0.45	434	964^	4120	>10^3
Cc1ccc(-c2nc(N)nc3c(Cc4ccccc4F)cnn23)o1 [Example 4, 8-(2-Fluorobenzyl)-4-(5-methylfuran-2-yl)pyrazolo[1,5-a][1,3,5]triazin-2-amine]	0.14	–	–	> 10000	>10^4
Cc1ccc(-c2nc(N)nc3c(Cc4cccc(CN5CCOCC5)n4)cnn23)o1 [Example 5, 4-(5-Methylfuran-2-yl)-8-((6-(morpholinomethyl)pyridin-2-yl)methyl)pyrazolo[1,5-a][1,3,5]triazin-2-amine]	0.55	835	>10^3	2280	>10^3
Cc1ccc(-c2nc(N)nc3c(Cc4cccc(CO[C@@H]5CCOC5)n4)cnn23)o1 [Example 6, (R)-4-(5-Methylfuran-2-yl)-8-((6-(((tetrahydrofuran-3-yl)oxy)methyl)pyridin-2-yl)methyl)pyrazolo[1,5-a][1,3,5]triazin-2-amine]	0.4	316	790^	4810	>10^3
Cc1ccc(-c2nc(N)nc3c(Cc4cccc(CN5CC6(COC6)C5)n4)cnn23)o1 [Example 7, 8-((6-((2-Oxa-6-azaspiro[3.3]heptan-6-yl)methyl)pyridin-2-yl)methyl)-4-(5-methylfuran-2-yl) pyrazolo[1,5-a][1,3,5]triazin-2-amine]	1.18	340	288^	7370	>10^3
Cc1ccc(-c2nc(N)nc3c(Cc4cccc(CN5CCN(C)CC5)n4)cnn23)o1 [Example 8, 4-(5-Methylfuran-2-yl)-8-((6-((4-methylpiperazin-1-yl)methyl)pyridin-2-yl)methyl)pyrazolo[1,5-a][1,3,5]triazin-2-amine]	1.32	943	714^	6490	>10^3
Cc1ccc(-c2nc(N)nc3c(Cc4cccc(COS(N)(=O)=O)n4)cnn23)o1 [Example 11, (6-((2-Amino-4-(5-methylfuran-2-yl)pyrazolo[1,5-a][1,3,5]triazin-8-yl)methyl)pyridin-2-yl)methyl sulfamate]	1.86	410	220^	–	–

More lines, now with the values ahead:

IC50 [1] [nM]	IC50 [2] [nM]	IC50 ratio (A1R/A2aR) [2]	IC50 [3] [nM]	IC50 ratio (A3R/A2aR) [3]	SMILES
0.72	–	–	1390	>10^3	Cc1ccc(-c2nc(N)nc3c(Cc4cccc(COCC5CC5)n4)cnn23)o1 [Example 17, 8-((6-((Cyclopropylmethoxy)methyl)pyridin-2-yl)methyl)-4-(5-methylfuran-2-yl)pyrazolo[1,5-a][1,3,5]triazin-2-amine]
0.09	–	–	280	>10^3	CCCc1cccc(Cc2cnn3c(-c4ccc(C)o4)nc(N)nc23)n1 [Example 20, 4-(5-Methylfuran-2-yl)-8-((6-propylpyridin-2-yl)methyl)pyrazolo[1,5-a][1,3,5]triazin-2-amine]
0.58	–	–	–	–	Cc1ccc(-c2nc(N)nc3c(Oc4ccccn4)cnn23)o1 [Example 23, 4-(5-Methylfuran-2-yl)-8-(pyridin-2-yloxy)pyrazolo[1,5-a][1,3,5]triazin-2-amine]
3.53	–	–	–	–	Cc1ccc(-c2nc(N)nc3c(Nc4ccccc4F)cnn23)o1 [Example 31, N^8-(2-Fluorophenyl)-4-(5-methylfuran-2-yl)pyrazolo[1,5-a][1,3,5]triazine-2,8-diamine]
4.14	565	136^	–	–	Nc1nc(-c2ccco2)n2ncc(Cc3ccccc3)c2n1 [Example 33, 8-Benzyl-4-(furan-2-yl)pyrazolo[1,5-a][1,3,5]triazin-2-amine]
4.64	–	–	–	–	Nc1nc(-c2ccco2)n2ncc(Cc3cccc(F)c3)c2n1 [Example 34, 8-(3-Fluorobenzyl)-4-(furan-2-yl)pyrazolo[1,5-a][1,3,5]triazin-2-amine]
